Assay results as given in patent publication US10266484B2, “Biodegradable lipids for the delivery of active agents” (ALNYLAM PHARMACEUTICALS, INC., priority 2010, dated 2019).

Legend:
[1] = Lipid concentration and pharmacokinetics in the plasma of mice after intravenous administration; type: in vivo; conditions: mouse, male C57BL mice, lipid dose 0.3 mg/kg
Protocol: (§1) A study was conducted to determine the lipid profile and tissue clearance in mice for cationic lipids according to the present invention.
(§2) Male mice (C57BL, 20-30 g) were separated into four groups and administered (intravenously) either Compound 1, 2 or 3 of the present invention, or a Reference Lipid, as shown below in Table 20.
(§3) The mice were not fasted. Blood, liver and spleen samples were collected (two samples per time point per group) at 0.17, 8, 24, 72, 168, 336 and 672 hours post dose.

[2] = Study to determine lipid profiles and tissue clearance in mice (overall conclusion); type: in vivo, mice (C57BL); conditions: liver, spleen and plasma (FIGS. 1, 3, 4; Tables 22, 24, 26)
Protocol: as §1, §2, §3

[3] = Concentration of metabolites of compounds 1-3 in the spleen of mice; type: in vivo, mice (C57BL)
Protocol: as §2, §3

[4] = Lipid concentration and pharmacokinetics in the liver of mice after intravenous administration; type: in vivo; conditions: mouse, male C57BL mice, lipid dose 0.3 mg/kg
Protocol: as §1, §2, §3

[5] = Concentration of metabolites of compounds 1-3 in the plasma of mice; type: in vivo, mice (C57BL)
Protocol: as §2, §3
All measurements after 24 hours (including those taken at 72, 168, 336, and 672 hours post-administration) were below the level of quantification (BLQ).

[6] = Lipid concentration and pharmacokinetics in the spleen of mice after intravenous administration; type: in vivo; conditions: mouse, male C57BL mice, lipid dose 0.3 mg/kg; for MRT last: read-out: MRT0-t (mean residence time)
Protocol: as §1, §2, §3

[7] = Concentration of mono-acid and di-acid metabolites in the liver of mice; type: in vivo, mice (C57BL); conditions: 0.3 mg/kg intravenous
Protocol: as §2, §3
The concentration of these metabolites was measured in the liver. All measurements after 24 hours (including those taken at 72, 168, 336, and 672 hours post-administration) were below the level of quantification (BLQ).

[8] = read-out: MRT0-t (mean residence time)

AUC [1] [µg·h/mL] | Cmax [1] [ng/mL] | Concentration of di-acid metabolite in the spleen ([3]; 24 hr post dose) | Concentration of mono-acid metabolite in the spleen ([3]; 24 hr post dose) | Concentration of di-acid metabolite in the spleen ([3]; 72 hr post dose) | Concentration of mono-acid metabolite in the spleen ([3]; 72 hr post dose) | Concentration of di-acid metabolite in the spleen ([3]; 168 hr post dose) | Concentration of mono-acid metabolite in the spleen ([3]; 168 hr post dose) | Concentration of mono-acid metabolite in the spleen ([3]; 336 hr post dose) | Concentration of di-acid metabolite in the spleen ([3]; 672 hr post dose) | Concentration of mono-acid metabolite in the spleen ([3]; 672 hr post dose) | AUC [4] [µg·h/mL] | Cmax [4] [ng/mL] | Concentration of mono-acid metabolite in the plasma ([5]; 24 hr post dose) | AUC [6] [µg·h/mL] | Cmax [6] [ng/mL] | MRT last [6] [h] | Di-acid metabolite concentration ([7]; 24 hr post dose) | Mono-acid metabolite concentration ([7]; 24 hr post dose) | SMILES | Tissue clearance and activity compared to the Reference Lipid [2] | further results
155 | 38800 | BLQ | BLQ | BLQ | BLQ | BLQ | BLQ | BLQ | BLQ | BLQ | 4.59 | 1140 | BLQ | 42 | 7460 | 2.8 | BLQ | BLQ | CCCCCC/C=C\COC(=O)CCCCCCCC(CCCCCCCC(=O)OC/C=C\CCCCCC)OC(=O)CCCN(C)C [Compound 1, di((Z)-non-2-en-1-yl) 9-((4-(dimethylamino)butanoyl)oxy)heptadecanedioate] | dramatically improved tissue clearance and activity | Concentration of di-acid metabolite in the spleen ([3]; 8 hr post dose): BLQ; Concentration of di-acid metabolite in the spleen ([3]; 336 hr post dose): BLQ; Concentration of di-acid metabolite in the plasma ([5]; 8 hr post dose): BLQ; Concentration of mono-acid metabolite in the plasma ([5]; 8 hr post dose): BLQ; Concentration of di-acid metabolite in the plasma ([5]; 24 hr post dose): BLQ
116 | 28800 | BLQ |  | BLQ | BLQ | BLQ | BLQ | BLQ | BLQ | BLQ | 0.436 | 118 | BLQ | 238 | 13600 | 11.1 | BLQ | BLQ | CCOC(=O)CCCC/C=C\CCCCCCCCC(CCCCCCCC/C=C\CCCCC(=O)OCC)OC(=O)CCCN(C)C [Compound 2] | dramatically improved tissue clearance and activity | Concentration of di-acid metabolite in the spleen ([3]; 336 hr post dose): BLQ; Concentration of di-acid metabolite in the plasma ([5]; 24 hr post dose): BLQ
122 | 30600 |  | BLQ |  | BLQ |  | BLQ | BLQ | BLQ | BLQ |  | 208 | BLQ | 18.7 | 4370 | 0.7 | BLQ | BLQ | COC(=O)CCCCCCC/C=C\CCCCCCCCC(CCCCCCCC/C=C\CCCCCCCC(=O)OC)OC(=O)CCCN(C)C [Compound 3] | dramatically improved tissue clearance and activity | Concentration of mono-acid metabolite in the plasma ([5]; 8 hr post dose): BLQ; Di-acid metabolite concentration ([7]; 8 hr post dose): BLQ; Mono-acid metabolite concentration ([7]; 8 hr post dose): BLQ
63.8 | 2110 |  |  |  |  |  |  |  |  |  | 6950 | 22400 |  | 3430 | 9150 | 230 |  |  | CCCCC/C=C\C/C=C\CCCCCCCCOCC(CN(C)C)OCCCCCCCC/C=C\C/C=C\CCCCC (centres unmarked) [Reference Lipid, reference compound] |  | MRT last [1, 8]: 201 h; MRT last [4, 8]: 221 h
